One assay relates to 3CLpro protease. It is filed as biochemical, SARS-CoV.
The test system of the next assay is SARS-CoV-1. In kind it is cell-based.
For a further assay, the system named is SARS-CoV-2. In kind it is cell-based.
Another assay concerns recombinant human furin. Put plainly: Furin cleavage of Site S1 peptide (Peptide 1, Acetyl-SPRRAR-pNA) after incubation with MGO. It is filed as biochemical. To be noted: 8 mM MGO, 400 μM peptide 1, 5 nM furin.
The next assay has as its system trypsin. The experiment in a line: Trypsin (surrogate for TMPRSS2) cleavage of Site S2' peptide (Peptide 2, Acetyl-SKPSKR-pNA) after incubation with MGO. It is filed as biochemical. To be noted: 8 mM MGO, 400 μM peptide 2, 5 nM trypsin.

Molecules are shown by their SMILES. Marks after values point to notes of the source that are not given here.

In the case of `O=c1c(O)c(-c2ccccc2)oc2cc(O)cc(O)c12` [galangin], the “inhibition of 3CLpro protease activity (cleavage of pNA substrate)” value (“inhibition of 3CLpro protease activity” below) with 3CLpro protease is recorded as “inhibit activity of 3CLpro protease”.
Same read-out and setting: the entry for `O=c1c(O)c(-c2ccc(O)c(O)c2)oc2cc(O)cc(O)c12` [quercetin] is “inhibit activity of 3CLpro protease”; for `COc1ccc([C@@H]2CC(=O)c3c(O)cc(O[C@@H]4O[C@H](CO[C@@H]5O[C@@H](C)[C@H](O)[C@@H](O)[C@H]5O)[C@@H](O)[C@H](O)[C@H]4O)cc3O2)cc1O` [hesperidin] it is “inhibit activity of 3CLpro protease”.
`O=c1cc(-c2ccc(O)c(O)c2)oc2cc(O)cc(O)c12` [luteolin]: the “inhibition of 3CLpro protease activity” value in the assay with 3CLpro protease is recorded as “inhibit activity of 3CLpro protease”.
On the same count and under the same terms, then `O=C1c2c(O)cc(O)cc2O[C@H](c2ccccc2)[C@H]1O` [pinobanksin], with “inhibit activity of 3CLpro protease”.
In the case of `CCO` [EtOH, ethanol], the “LRV (log10 reduction of virus compared to the virus control)” value was found to be 2.8 log10 with SARS-CoV-1 and 3.9 log10 with SARS-CoV-2. Also, the “Virus (CCID50/0.1 mL)” value in the assay on SARS-CoV-1 was 1.5 ± 0.2 CCID50/0.1 mL; in the assay on SARS-CoV-2 it was <0.7**** CCID50/0.1 mL.
In the case of `CC(=O)C=O` [MGO, methylglyoxal], the “reduction in pNA liberated (activation of peptide 1 by furin)” value is 97% in the assay with recombinant human furin (incubation 3 h), 97% in the assay on recombinant human furin (incubation 4 h) and 90% in the assay on recombinant human furin (incubation time 0). For the same compound, the “reduction in pNA liberated (activation of peptide 2 by trypsin)” value in the assay with trypsin (incubation 4 h) is given as 88%; with trypsin (incubation time 0) it was 21%.
`O=C(O)/C=C/c1ccc(O)cc1` [p-coumaric acid]: the “inhibition of 3CLpro protease activity” value in the assay on 3CLpro protease was “inhibit activity of 3CLpro protease”.
Still for that read-out and setting: then `O=C(O)C(O)Cc1ccccc1` (stereo not drawn) [3-phenyllactic acid], with “inhibit activity of 3CLpro protease”; and `O=C1C[C@@H](c2ccccc2)Oc2cc(O)cc(O)c21` [pinocembrin], with “inhibit activity of 3CLpro protease”.
Still for that read-out and setting: then `O=c1c(O)c(-c2ccc(O)cc2)oc2cc(O)cc(O)c12` [kaempferol], with “inhibit activity of 3CLpro protease”.

The values are drawn from patent US20230118955A1 (priority 2020, published 2023).
